Results published in patent US6734182B2, “Aryl sulfonamides and sulfamide derivatives and uses thereof” (Synaptic Pharmaceutical Corporation, priority 1995, dated 2004).

How the values were obtained:
human Y2 receptor = target: T1, human Y2 receptor (Homo sapiens, UniProt P49146); assay: Radioligand binding to cloned human Y2 receptor (125I-PYY); details: cloned human Y2, stably transfected cells, read-out: Binding Affinity (K1 (nM) vs. 125I-PYY) Human Receptor Y2
T1 construct: expressed in transfected cells
T1 sequence (P49146 1-381): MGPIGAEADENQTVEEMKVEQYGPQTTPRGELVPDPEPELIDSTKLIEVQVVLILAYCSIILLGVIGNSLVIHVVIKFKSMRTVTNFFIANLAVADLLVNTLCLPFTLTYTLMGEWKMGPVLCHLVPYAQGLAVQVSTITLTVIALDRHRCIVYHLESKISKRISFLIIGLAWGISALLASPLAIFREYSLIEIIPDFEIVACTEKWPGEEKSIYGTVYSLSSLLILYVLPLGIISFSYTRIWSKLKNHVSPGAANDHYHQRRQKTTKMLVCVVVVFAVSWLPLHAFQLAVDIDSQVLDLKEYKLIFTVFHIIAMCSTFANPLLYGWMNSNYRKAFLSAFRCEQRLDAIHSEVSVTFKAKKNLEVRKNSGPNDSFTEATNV
Procedure: (§1) Human Y1, human Y2, and rat Y5 receptors were co-transfected with a G-418 resistant gene into the human embryonic kidney 293 cell line by a calcium phosphate transfection method (Cullen, 1987). Stably transfected cells were selected with G-418. Human Y4 and human Y5 receptors were similarly transfected into mouse fibroblast LM(tk−) cells and NIH-3T3 cells.
(§2) Binding of the compounds of the present invention to the human Y1, Y2, Y4 and Y5 receptors was evaluated using stably transfected 293 or LM(tk−) cells as described above. Stably transfected cell lines which may be used for binding assays include, for example, for the human Y1 receptor, 293-hY1-5 (deposited Jun. 4, 1996, under ATCC Accession No. CRL-12121), for the human Y2 receptor, 293-hY2-10 (deposited Jan. 27, 1994, under ATCC Accession No. CRL-11537), for the human Y4 receptor, L-hY4-3 (deposited Jan. 11, 1995, under ATCC Accession No. CRL-11779), and for the human Y5 receptor, L-hY5-7 (deposited Nov. 15, 1995, under ATCC Accession No. CRL-11995).
(§3) Membranes were harvested from COS-7 cells 48 hours after transient transfection. Adherent cells were washed twice in ice-cold phosphate buffered saline (138 mM NaCl, 8.1 mM Na2HPO4, 2.5 mM KCl, […], 0.9 mM CaCl2, 0.5 mM MgCl2, pH 7.4) and lysed by sonication in ice-cold sonication buffer (20 mM Tris-HCl, 5 mM EDTA, pH 7.7). Large particles and debris were cleared by low speed centrifugation (200 x g, 5 min, 4° C.). Membranes were collected from the supernatant fraction by centrifugation (32,000 x g, 18 min, […] ), washed with ice-cold hypotonic buffer, and collected again by centrifugation (32,000 x g, 18 min, 4° C.). […] Protein concentration was measured by the Bradford method (Bradford, 1976) using Bio-Rad Reagent, with bovine serum albumin as a standard. Membranes were held on ice for up to one hour and used fresh, or flash-frozen and stored in liquid nitrogen.
(§4) Membranes were prepared similarly from 293, LM(tk−), and NIH-3T3 cells. To prepare membranes from baculovirus infected cells, 2×10^7 Sf21 cells were grown in 150 mm tissue culture dishes and infected with a high-titer stock of hY5BB3. Cells were incubated for 2-4 days at 27° C., no CO2 be fore harvesting and membrane preparation as described above.

human Y4 receptor = target: T2, human Y4 receptor (Homo sapiens, UniProt P50391); assay: Radioligand binding to cloned human Y4 receptor (125I-PYY); details: cloned human Y4, stably transfected cells, read-out: Binding Affinity (K1 (nM) vs. 125I-PYY) Human Receptor Y4
T2 construct: expressed in transfected cells
Procedure: as §1, §2, §3, §4

[1] = system: food intake in food-deprived rats; assay: Food intake in food-deprived rats (24 h food deprivation); format: in vivo, rat; parameters: concentration or dose not given beside the values; details: rats after 24 h food deprivation; two hours after administration of test compound
human 5HT1F receptor = target: T3, human 5HT1F receptor (Homo sapiens, UniProt P30939); assay: Binding to human 5HT1F receptor ([3H]serotonin); details: cloned human receptor; read-out: Receptor (pKi) 5HT1F (converted)
T3 construct: expressed in transfected cells
T3 sequence (P30939 1-366): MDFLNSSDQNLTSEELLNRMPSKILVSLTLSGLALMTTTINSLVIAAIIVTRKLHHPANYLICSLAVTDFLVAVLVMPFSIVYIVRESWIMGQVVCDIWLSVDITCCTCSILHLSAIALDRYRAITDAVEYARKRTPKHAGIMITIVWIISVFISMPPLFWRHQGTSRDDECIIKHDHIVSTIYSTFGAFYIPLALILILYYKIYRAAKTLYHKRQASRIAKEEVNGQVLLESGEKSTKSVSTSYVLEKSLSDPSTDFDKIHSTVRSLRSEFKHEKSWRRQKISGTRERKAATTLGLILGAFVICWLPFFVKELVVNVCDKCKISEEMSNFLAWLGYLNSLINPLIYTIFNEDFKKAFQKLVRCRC
Procedure: (§5) 5HT1Dα, 5HT1Dβ, 5HT1E, 5HT1F Receptors: LM(tk−) clonal cell lines stably transfected with the genes encoding each of these 5HT receptor subtypes were prepared as described above. The cell line for the 5HT1Dα, receptor, designated as Ltk−8-30-84, was deposited on Apr. 17, 1990, and accorded ATCC Accession No. CRL 10421. The cell for the 5HT1Dβ receptor, designated as Ltk−11, was deposited on Apr. 17, 1990, and accorded ATCC Accession No. CRL 10422. The cell line for the 5HT1E receptor, designated 5 HT1E-7, was deposited on Nov. 6, 1991, and accorded ATCC Accession No. CRL 10913. The cell line for the 5HT1F receptor, designated L-5-HT1F, was deposited on Dec. 27, 1991, and accorded ATCC Accession No. ATCC 10957. Membrane preparations comprising these receptors were prepared as described below, and suspended in 50 mM Tris-HCl buffer (pH 7.4 at 37° C.) containing 10 mM MgCl2, 0.2 mM EDTA, 10 μM pargyline, and 0.1% ascorbate. The binding of compounds was determined in competition binding assays by incubation for 30 minutes at 37° C. in the presence of 5 nM [^3H) serotonin. Nonspecific binding was determined in the presence of 10 μM serotonin. The bound radioligand was separated by filtration through GF/B filters using a cell harvester.

human 5HT1E receptor = target: T4, human 5HT1E receptor (Homo sapiens, UniProt P28566); assay: Binding to human 5HT1E receptor ([3H]serotonin); details: cloned human receptor; read-out: Receptor (pKi) 5HT1E (converted)
T4 construct: expressed in transfected cells
Procedure: as §5

[2] = system: NPY-induced feeding behavior in satiated rats; assay: NPY-induced food intake in satiated rats; format: in vivo, rat; details: compound 10 mg/kg i.p., then 300 pmole NPY i.c.v., 4 hours after NPY, in g (unit assumed)
Procedure: For these determinations food intake maybe measured in normal satiated rats after intracerebroventricular application (i.c.v.) of NPY in the presence or absence of the test compound. Male Sprague Dawley rats ciba-Geigy AG, Sisseln, Switzerland weighing between 180 g and 220 g are used for all experiments. The rats are individually housed in stainless steel cages and maintained on an 11:13 h light-dark cycle (lights off at 18:00 h) at a controlled temperature of 21-23° C. at all times. Water and food (NAFAG lab chow pellets, NAFAG, Gossau, Switzerland) are available ad libidum.
Rats under pentobarbital anesthesia are stereotaxically implanted with a stainless steel guide cannula targeted at the right lateral ventricle. Stereotaxic coordinates, with the incisor bar set −2.0 mm below interaural line, are: −0.8 mm anterior and +1.3 mm lateral to bregma. The guide cannula is placed on the dura. […]
Food intake may be measured by placing preweighed pellets into the cages at the time of NPY injection. […] The food intake of animals treated with test compound may be calculated as a percentage of the food intake of control animals, i.e., animals treated with vehicle. Alternatively, food intake for a group of animals subjected to the same experimental condition may be expressed as the mean ±S.E.M. Statistical analysis is performed by analysis of variance using the Student-Newman-Keuls test. […]

human Y1 receptor = target: T5, human Y1 receptor (Homo sapiens, UniProt P25929); assay: Radioligand binding to cloned human Y1 receptor (125I-PYY); details: cloned human Y1, stably transfected cells, read-out: Binding Affinity (K1 (nM) vs. 125I-PYY) Human Receptor Y1
T5 construct: expressed in transfected cells
T5 sequence (P25929 1-384): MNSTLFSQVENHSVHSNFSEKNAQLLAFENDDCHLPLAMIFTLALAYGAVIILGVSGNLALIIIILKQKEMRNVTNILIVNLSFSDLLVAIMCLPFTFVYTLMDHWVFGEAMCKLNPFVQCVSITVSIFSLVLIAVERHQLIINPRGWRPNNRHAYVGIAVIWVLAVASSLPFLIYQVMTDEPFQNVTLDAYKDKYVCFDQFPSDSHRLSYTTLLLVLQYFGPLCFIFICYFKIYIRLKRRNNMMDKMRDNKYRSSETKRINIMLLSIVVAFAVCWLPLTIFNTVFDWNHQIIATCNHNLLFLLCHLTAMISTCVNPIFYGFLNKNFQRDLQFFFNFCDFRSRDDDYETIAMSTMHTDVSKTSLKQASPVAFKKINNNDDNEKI
Procedure: (§6) Membranes were harvested from COS-7 cells 48 hours after transient transfection. […] Large particles and debris were cleared by low speed centrifugation (200 x g, 5 min, 4° C.). […] Membranes were held on ice for up to one hour and used fresh, or flash-frozen and stored in liquid nitrogen.
(§7) Incubations were terminated by filtration over Whatman GF/C filters (pre-coated with 1% polyethyleneimine and air-dried before use), followed by washing with 5 mL of ice-cold binding buffer.

human Y5 receptor = target: T6, human Y5 receptor (Homo sapiens, UniProt Q15761); assay: Radioligand binding to cloned human Y5 receptor (125I-PYY); details: cloned human Y5, stably transfected cells, read-out: Binding Affinity (K1 (nM) vs. 125I-PYY) Human Receptor Y5
T6 construct: expressed in transfected cells
T6 sequence (Q15761 1-445): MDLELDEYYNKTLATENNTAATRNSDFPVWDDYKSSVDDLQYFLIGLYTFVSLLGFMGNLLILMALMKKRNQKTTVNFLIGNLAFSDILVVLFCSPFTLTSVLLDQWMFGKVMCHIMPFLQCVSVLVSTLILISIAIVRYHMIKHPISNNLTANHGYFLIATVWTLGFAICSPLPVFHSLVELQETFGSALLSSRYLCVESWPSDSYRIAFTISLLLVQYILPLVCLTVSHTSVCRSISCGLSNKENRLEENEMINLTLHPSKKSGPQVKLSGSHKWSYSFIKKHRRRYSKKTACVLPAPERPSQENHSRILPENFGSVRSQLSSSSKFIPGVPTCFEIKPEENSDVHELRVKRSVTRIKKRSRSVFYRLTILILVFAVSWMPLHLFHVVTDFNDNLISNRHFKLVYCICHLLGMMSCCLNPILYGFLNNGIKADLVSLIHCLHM
Procedure: as §6, §7

cloned human Y5 receptor = target: T7, cloned human Y5 receptor (Homo sapiens, UniProt Q15761); assay: Functional assay: block of NPY-induced inhibition of cAMP accumulation in forskolin-stimulated LM(tk-) cells (radioimmunoassay of cAMP); format: cell-based; details: antagonism of NPY-induced inhibition of cAMP accumulation, forskolin-stimulated LM(tk-) cells with human Y5; at least three experiments
T7 construct: expressed in transfected cells
T7 sequence (Q15761 1-445): T6 sequence (Q15761 1-445)
Procedure: LM(tk−) cells stably transfected with the human Y5 receptor were routinely converted from an adherent monolayer to a viable suspension. […] The cell suspension was maintained in a shaking incubator at 37° C., 5% CO2 for 24 hours.
Stably transfected cells were seeded into 96-well microtiter plates and cultured until confluent.
The ability of the compounds to antagonize the Y-type receptors is reported as the Kb. […] Results shown are representative of at least three indepenent experiments.

T2 sequence (P50391 whole entry): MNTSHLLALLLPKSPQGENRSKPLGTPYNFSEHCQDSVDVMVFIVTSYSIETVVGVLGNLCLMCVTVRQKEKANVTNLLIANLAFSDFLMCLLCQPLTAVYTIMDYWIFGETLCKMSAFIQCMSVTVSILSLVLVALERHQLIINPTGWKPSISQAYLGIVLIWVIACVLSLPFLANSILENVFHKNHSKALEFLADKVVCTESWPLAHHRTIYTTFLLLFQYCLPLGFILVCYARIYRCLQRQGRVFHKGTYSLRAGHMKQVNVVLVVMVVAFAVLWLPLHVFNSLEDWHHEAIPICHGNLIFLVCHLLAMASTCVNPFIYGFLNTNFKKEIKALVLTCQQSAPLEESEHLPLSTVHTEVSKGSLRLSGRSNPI
T4 sequence (P28566 whole entry): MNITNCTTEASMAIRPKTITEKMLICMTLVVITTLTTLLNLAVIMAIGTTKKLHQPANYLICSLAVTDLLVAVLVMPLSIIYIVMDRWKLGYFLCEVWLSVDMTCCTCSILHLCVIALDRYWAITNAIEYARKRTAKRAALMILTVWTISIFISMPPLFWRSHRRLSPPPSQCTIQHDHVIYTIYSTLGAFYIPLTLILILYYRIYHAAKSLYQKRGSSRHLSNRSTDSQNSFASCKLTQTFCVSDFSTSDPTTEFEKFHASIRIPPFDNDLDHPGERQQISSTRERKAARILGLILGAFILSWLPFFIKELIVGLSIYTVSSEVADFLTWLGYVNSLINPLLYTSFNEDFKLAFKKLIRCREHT

Row | Structure (SMILES) | Ki (human Y2 receptor) | Ki (human Y4 receptor) | Two-hour food intake, percentage of intake compared to control rats, Mean (%) [1] | Ki (human 5HT1F receptor) | Ki (human 5HT1E receptor) | NPY-induced cumulative food intake (NPY + compound), mean ± S.E.M. [2] | Ki (human Y1 receptor) | Ki (human Y5 receptor) | Kb (cloned human Y5 receptor)
1 | O=S(=O)(NC[C@H]1CC[C@H](CNC(CO)Cc2ccc(Cl)cc2)CC1)c1cccc2ccccc12 (relative stereo) [Example 77, Naphthalene-1-sulfonic Acid trans-(4-{[2-(4-Chloro-phenyl)-1-hydroxymethyl-ethylamino]-methyl}-cyclohexylmethyl)-amide] | 851 nM | 13100 nM | 32% | ≥ 5.01 µM | ≥ 5.01 µM |  |  |  | 
2 | Cl.O=S(=O)(NCC1CCC(CNCC2CCc3ccccc3C2)CC1)c1ccc2ccccc2c1 (centres unmarked) [Example 31] |  |  | 27% |  |  | 3.8 ± 0.4 |  |  | 
3 | Cl.O=S(=O)(NCC1CCC(CNCc2cccc3ccccc23)CC1)c1ccccc1C(F)(F)F (centres unmarked) [Example 37] | 617 nM | 21500 nM | 58% |  |  |  | 14500 nM | 26 nM | 0.038 µM
4 | Cl.O=S(=O)(NCC1CCC(CNCc2ccc3ccccc3c2)CC1)c1ccccc1C(F)(F)F (centres unmarked) [Example 38] | 1610 nM | 18500 nM | 80% |  |  |  | 13000 nM | 9.8 nM | 0.016 µM
5 | Cl.Cl.O=[N+]([O-])c1ccccc1S(=O)(=O)NCC1CCC(CNCc2ccc3ccccc3n2)CC1 (centres unmarked) [Example 44] | 58200 nM | 19300 nM | 73% |  |  |  | 23700 nM |  | 
6 | Cl.Cl.O=[N+]([O-])c1ccccc1S(=O)(=O)NCC1CCC(CNCc2ccnc3ccccc23)CC1 (centres unmarked) [Example 45] | 5280 nM | 63100 nM | 84% |  |  |  | 48700 nM | 28 nM | 0.049 µM
